The values below come from ChEMBL document CHEMBL5120826, “Effects of β-lapachone and β-nor-lapachone on multidrug efflux transporters and biofilms of Candida glabrata” (Bioorg Med Chem, 2022).

Values after ≈ are worked out from the molar mass of the structure shown. Active and inactive are the calls of the source. The rule behind the calls is not given here.

Data set [1] has as its system Nakaseomyces glabratus. The experiment in a line: Disruption of plasma membrane integrity in fluconazole resistant Candida glabrata 109 overexpressing CgCdr1p transporter assessed as fold increase in sytox green fluorescence intensity at 200 ug/ml incubated for 48 hrs by fluorescence based assay. It counts as functional. The conditions noted are these: dose 200 µg/ml.

Data set [2] relates to Nakaseomyces glabratus. The experiment in a line: Disruption of plasma membrane integrity in fluconazole resistant Candida glabrata 109 overexpressing CgCdr1p transporter assessed as fold increase in sytox green fluorescence intensity at 50 ug/ml incubated for 48 hrs by fluorescence based assay. Particulars: dose 50 µg/ml. It counts as functional.
For data set [3], the system named is Saccharomyces cerevisiae. The experiment in a line: Antifungal activity against fluconazole resistant Saccharomyces cerevisiae overexpressing CgCdr1p transporter assessed as reduction in fungal growth incubated for 48 hrs by checkboard assay based microplate reader analysis. It counts as functional.
In data set [4] the test system is Saccharomyces cerevisiae. The experiment in a line: Synergistic antifungal activity against fluconazole resistant Saccharomyces cerevisiae overexpressing CgCdr1p transporter assessed as reduction in fungal growth incubated for 48 hrs in presence of lapachone by checkboard assay based microplate reader analysis. The data set is classed as functional.
Data set [5] relates to Saccharomyces cerevisiae. In words: Synergistic antifungal activity against fluconazole resistant Saccharomyces cerevisiae overexpressing CgCdr2p transporter assessed as reduction in fungal growth incubated for 48 hrs in presence of lapachone by checkboard assay based microplate reader analysis. The data set is classed as functional.
Data set [6] concerns Saccharomyces cerevisiae. In words: Synergistic antifungal activity against fluconazole resistant Saccharomyces cerevisiae overexpressing CgCdr1p transporter assessed as fractional inhibitory concentration incubated for 48 hrs in presence of lapachone by checkboard assay based microplate reader analysis. It counts as functional.
Data set [7] has as its system Saccharomyces cerevisiae. In words: Synergistic antifungal activity against fluconazole resistant Saccharomyces cerevisiae overexpressing CgCdr2p transporter assessed as fractional inhibitory concentration incubated for 48 hrs in presence of lapachone by checkboard assay based microplate reader analysis. It counts as functional.
Data set [8] concerns Saccharomyces cerevisiae. In words: Synergistic antifungal activity against fluconazole resistant Saccharomyces cerevisiae overexpressing CgCdr1p transporter assessed as reduction in fungal growth incubated for 48 hrs in presence of fluconazole by checkboard assay based microplate reader analysis. It counts as functional.
The test system of data set [9] is Saccharomyces cerevisiae. The experiment in a line: Synergistic antifungal activity against fluconazole resistant Saccharomyces cerevisiae overexpressing CgCdr2p transporter assessed as reduction in fungal growth incubated for 48 hrs in presence of fluconazole by checkboard assay based microplate reader analysis. It counts as functional.
For data set [10], the system named is Saccharomyces cerevisiae. In words: Synergistic antifungal activity against fluconazole resistant Saccharomyces cerevisiae overexpressing CgCdr1p transporter assessed as fractional inhibitory concentration in presence of fluconazole incubated for 48 hrs by checkboard assay based microplate reader analysis. The data set is classed as functional.
The subject of data set [11] is Saccharomyces cerevisiae. In words: Synergistic antifungal activity against fluconazole resistant Saccharomyces cerevisiae overexpressing CgCdr2p transporter assessed as fractional inhibitory concentration in presence of fluconazole incubated for 48 hrs by checkboard assay based microplate reader analysis. It counts as functional.
The subject of data set [12] is Nakaseomyces glabratus. The experiment in a line: Antifungal activity against fluconazole resistant Candida glabrata 109 overexpressing CgCdr1p transporter assessed as reduction in fungal growth incubated for 48 hrs by checkboard assay based microplate reader analysis. It counts as functional.
In data set [13] the test system is Nakaseomyces glabratus. The experiment in a line: Additive antifungal activity against fluconazole resistant Candida glabrata 109 overexpressing CgCdr1p transporter assessed as fractional inhibitory concentration incubated for 48 hrs in presence of lapachone by checkboard assay based microplate reader analysis. The data set is classed as functional.
Data set [14] has as its system Nakaseomyces glabratus. In words: Indifferent antifungal activity against fluconazole sensitive Candida glabrata ATCC 2001 assessed as reduction in fungal growth incubated for 48 hrs in presence of fluconazole by checkboard assay based microplate reader analysis. It counts as functional.
Data set [15] deals with Saccharomyces cerevisiae. The experiment in a line: Antifungal activity against fluconazole resistant Saccharomyces cerevisiae overexpressing CgCdr1p transporter assessed as reduction in fungal growth at lower concentration incubated for 48 hrs by serial dilution method. The data set is classed as functional, organism-based.
Data set [16] relates to Saccharomyces cerevisiae. The experiment in a line: Inhibition of fluconazole resistant Saccharomyces cerevisiae overexpressing CgCdr2p transporter ATPase activity assessed as reduction in inorganic phosphate release in presence of ATP incubated for 1 hr by Fiske and Sub barrow method. The conditions noted are these: concentration not given here.
The subject of data set [17] is Nakaseomyces glabratus. The experiment in a line: Inhibition of fluconazole resistant Candida glabrata 109 overexpressing CgCdr1p transporter ATPase activity assessed as reduction in inorganic phosphate release in presence of ATP incubated for 1 hr by Fiske and Sub barrow method. The conditions noted are these: concentration not given here.
The test system of data set [18] is Erythrocyte. The experiment in a line: Hemolytic activity in human erythrocytes assessed as haemoglobin release at 12.5 ug/ml incubated for 1 hr by absorbance based method. The data set is classed as toxicity, cell-based. Particulars: dose 12.5 µg/ml.
Data set [19] deals with Erythrocyte. In words: Hemolytic activity in human erythrocytes assessed as haemoglobin release at 12.5 ug/ml incubated for 1 hr in presence of fluconazole by absorbance based method. The data set is classed as toxicity, cell-based. Particulars: dose 12.5 µg/ml.
The nature of data set [20]: Inhibition of fluconazole resistant Candida glabrata 109 overexpressing CgCdr1p transporter […] cell adhesion to polystyrene at 200 ug/ml incubated for 90 mins by MTT assay. The data set is classed as functional. The conditions noted are these: Nakaseomyces glabratus, 109, 1.5 h. (In general: Tetrazolium dyes change colour on reduction, which living cells bring about.)

For data set [21], the system named is Nakaseomyces glabratus. In words: Induction of ROS generation in fluconazole resistant Candida glabrata 109 overexpressing CgCdr1p transporter assessed as fold increase in ROS production at 200 ug/ml incubated for 48 hrs by DCFH-DA dye based fluorescence assay. The data set is classed as functional.
Data set [22] deals with Saccharomyces cerevisiae. The experiment in a line: Synergistic antifungal activity against fluconazole resistant Saccharomyces cerevisiae overexpressing CgCdr1p transporter assessed as fractional inhibitory concentration index incubated for 48 hrs by checkboard assay based microplate reader analysis. It counts as functional.
In data set [23] the test system is Erythrocyte. The experiment in a line: Hemolytic activity in human erythrocytes assessed as haemoglobin release at 50 ug/ml incubated for 1 hr by absorbance based method. The conditions noted are these: dose 50 µg/ml. It counts as toxicity, cell-based.
Data set [24] deals with Erythrocyte. The experiment in a line: Hemolytic activity in human erythrocytes assessed as haemoglobin release at 50 ug/ml incubated for 1 hr in presence of fluconazole by absorbance based method. Particulars: dose 50 µg/ml. The data set is classed as toxicity, cell-based.
The test system of data set [25] is Saccharomyces cerevisiae. In words: Additive antifungal activity against fluconazole resistant Saccharomyces cerevisiae overexpressing CgCdr1p transporter assessed as reduction in fungal growth incubated for 48 hrs in presence of lapachone by checkboard assay based microplate reader analysis. It counts as functional.
Data set [26] concerns Saccharomyces cerevisiae. In words: Additive antifungal activity against fluconazole resistant Saccharomyces cerevisiae overexpressing CgCdr1p transporter assessed as fractional inhibitory concentration incubated for 48 hrs in presence of lapachone by checkboard assay based microplate reader analysis. The data set is classed as functional.
The subject of data set [27] is Saccharomyces cerevisiae. In words: Additive antifungal activity against fluconazole resistant Saccharomyces cerevisiae overexpressing CgCdr1p transporter assessed as reduction in fungal growth incubated for 48 hrs in presence of fluconazole by checkboard assay based microplate reader analysis. It counts as functional.
Data set [28] relates to Saccharomyces cerevisiae. In words: Additive antifungal activity against fluconazole resistant Saccharomyces cerevisiae overexpressing CgCdr1p transporter assessed as fractional inhibitory concentration in presence of fluconazole incubated for 48 hrs by checkboard assay based microplate reader analysis. It counts as functional.
Data set [29] deals with Saccharomyces cerevisiae. In words: Additive antifungal activity against fluconazole resistant Saccharomyces cerevisiae overexpressing CgCdr1p transporter assessed as fractional inhibitory concentration index incubated for 48 hrs by checkboard assay based microplate reader analysis. It counts as functional.

On to `CC1(C)CCC2=C(O1)c1ccccc1C(=O)C2=O` [LAPACHONE], for which the “fold change (FC)” value came out at 3 in data set [1], 1.6 in data set [2] and 16 in data set [21] (dose 200 µg/ml). Besides, the MIC (as a rule, the least concentration at which growth counts as inhibited) in [3] is 100 µg/mL (≈ 413 µM); in [4], 25 µg/mL; in [5], 6.25 µg/mL; in data set [8], 125 µg/mL; in data set [9], 3.9 µg/mL; in data set [12], 25 µg/mL (≈ 103 µM). The MIC in data set [14] is 15.6 µg/mL. The FIC worked out at 0.25 µg/mL in data set [6]; 0.25 µg/mL in [7]; 0.25 µg/mL in data set [10]; 0.06 µg/mL in [11]; 0.5 µg/mL in [13]. In data set [15], the outcome was Active. Also, the results for the inhibition in [16] and in data set [17] were 46% and 49%, respectively. In addition, the Activity result in [18] and in data set [19] was “Non-Toxic” in each case. Also, testing at 200 µg/mL in data set [20] gave an inhibition of 44%. For the same compound, the “fractional inhibitory concentration index (FICI)” value in data set [22] amounted to 0.5.
On to `CC1(C)CC2=C(O1)c1ccccc1C(=O)C2=O` [NOR-BETA-LAPACHONE], for which the minimal inhibitory concentration (MIC) was determined as 50 µg/mL (≈ 219 µM) in [3]; 100 µg/mL (≈ 438 µM) in data set [12]; 15.6 µg/mL in data set [14]; 25 µg/mL in data set [25]; 62.5 µg/mL in data set [27]. Moreover, the FIC in data set [13] turned out to be 0.5 µg/mL; in data set [26] it was 0.5 µg/mL; in data set [28], 0.125 µg/mL. Further, the result in data set [15] and in [21] (dose 200.0 µg/ml) was Active. In addition, the Activity result in [23] and in [24] was “Non-Toxic” in each case. For the same compound, the “fractional inhibitory concentration index (FICI)” value in [29] is 0.625.
